Here are results for five molecules from ChEMBL document CHEMBL1141129, “Glucosamine-glycerophospholipids that activate cell-matrix adhesion and migration” (2005).

What all share (type): functional
Experiment [1] has as its system HaCaT. Kind of experiment: Lethal dose for Proliferation of human HaCaT cells after 24 hr of treatment upon incubation for 6 h. To be noted: read-out: LD50 (the source's name).
Experiment [2] has as its system HaCaT. Kind of experiment: Lethal dose for Proliferation of human HaCaT cells after 24 hr of treatment upon incubation for 24 h. To be noted: for CC50: read-out: LD50 (the source's name).
Experiment [3] concerns MDCK. Kind of experiment: Lethal dose for Proliferation of […] after 24 hr of treatment upon incubation for 6 h. The settings on record: Canis lupus familiaris, read-out: LD50 (the source's name).

With `CCCCCCCCCCCCCCCCCCOC[C@H](COP(=O)([O-])OCC[N+](C)(C)C)O[C@@H]1O[C@H](CO)[C@@H](O)[C@H](O)[C@H]1O`, the CC50 in experiment [1] was found to be 9 µM.
As to `CCCCCCCCCCCCCCCCCCOC[C@H](COP(=O)([O-])OCC[N+](C)(C)C)OC1OC(O)C(O)C(O)C1NC1C(=O)C(C)=C(C)C1=O` (stereo partly specified), the CC50 in experiment [2] amounted to 5.5 µM.
Take `CCCCCCCCCCCCCCCCCCOC[C@H](COP(=O)([O-])OCC[N+](C)(C)C)OC1OC(O)C(O)C(O)C1N` (stereo partly specified): in experiment [2], the CC50 came to 30 µM.
Regarding `CCCCCCCCCCCCCCCCCCOCC(COP(=O)([O-])OCC[N+](C)(C)C)OC` (stereo unspecified) [EDELFOSINE], the CC50 in experiment [3] was 90 µM.
With `CCCCCCCCCCCCCCCCOP(=O)([O-])OCC[N+](C)(C)C` [MILTEFOSINE], the CC50 in experiment [3] came out at 200 µM. Besides, in experiment [2], the LD10 amounted to 20 µmol/L.
